Patent US8586591B2, “Aminopyrazine derivative and medicine” (Nippon Shinyaku Co., Ltd., priority 2009, dated 2013)
pIC50: −log10 of the molar value. Counter-ions that a name gives are not always drawn.

Tests used:
JAK2 tyrosine kinase = molecular target: T1, JAK2 tyrosine kinase (Homo sapiens, UniProt O60674); assay: Test 1: inhibitory activity to JAK2 tyrosine kinase (ELISA); assay type: biochemical; conditions: 25 μM ATP in substrate solution, 30° C. for 1 hour, n=2
T1 construct: purchased Carnabioscience Co
Method: Test 1: Test for inhibitory activity to JAK2 and JAK3 tyrosine kinase 1. Preparation of Test Material
The test material was dissolved in dimethylsulfoxide (DMSO) to be 10 mM, and further diluted with DMSO to be 100-fold concentrations for measurement (1000, 300, 100, 30, 10, 3, 1, 0.3, 0.1, 0.03, 0.01 μM). In addition, solutions diluted with an assay buffer up to 20 times were used as solutions of the test material. As a negative control, a solution of DMSO diluted 20 times with an assay buffer was used. As the assay buffer, 15 mM Tris-Cl (pH 7.5), 0.01 v/v % Tween-20, and 1 mM dithiothreitol were used.
2. Measurement of the Activities of JAK2 and JAK3 Tyrosine Kinases
The activity was determined by ELISA. The solution of the test material (10 μl each; n=2) was placed in a streptavidine-coated 96 well plate (DELFIA Strip Plate 8×12 wells; Perkin Elmer), to which 20 μl each of substrate solution (625 nM biotin-labeled peptide substrate, 25 μM ATP, 25 mM MgCl2, 15 mM Tris-Cl (pH 7.5), 0.01 v/v % Tween-20, and 1 mM dithiothreitol), was added and stirred. Finally, 20 μl each of JAK2 tyrosine kinase (Carnabioscience Co.) (diluted to 0.75 nM with assay buffer) or JAK3 tyrosine kinase (Carnabioscience Co.) (diluted to 0.75 nM with assay buffer) was added, stirred and allowed to stand at 30° C. for 1 hour. The plate was washed 4 times with a washing buffer (50 mM Tris-Cl, pH 7.5, 150 mM NaCl, 0.02 v/v % Tween-20), and then a blocking buffer (0.1% Bovine Serum Albumin, 50 mM Tris-Cl, pH 7.5, 150 mM NaCl, 0.02 v/v % Tween-20)(150 μl each) was added for blocking at 30° C. for 30 minutes. Blocking buffer was removed, and there was added 100 μl each of horse radish peroxidase-labeled anti-phosphorylated tyrosin kinase antibody (BD Bioscience Co.) (diluted 10,000 times with blocking buffer). The plate was incubated at 30° C. for 30 minutes and then washed 4 times with a washing buffer, and 100 μl each of 3,3′,5,5′-tetramethylbenzidine (Sigma-Aldrich Co.) was added to develop color for 10 minutes. 0.1 M sulfuric acid (100 μl each) was added to stop the reaction. The absorbance was measured by means of a micro-plate reader (BIO-RAD; Model 3550) at 450 nm.
3. Analysis of the Results of the Measurement
The measured absorbance was subjected to a non-linear regression analysis by means of a SAS system (SAS Institute Inc.), and the concentration (IC50) of the test material which inhibited 50% of the activity of each tyrosine kinase was estimated.

JAK3 tyrosine kinase = molecular target: T2, JAK3 tyrosine kinase (Homo sapiens, UniProt P52333); assay: Test 1: inhibitory activity to JAK3 tyrosine kinase (ELISA); assay type: biochemical; conditions: 25 μM ATP in substrate solution, 30° C. for 1 hour, n=2
T2 construct: purchased Carnabioscience Co
T2 sequence (P52333 1-1124): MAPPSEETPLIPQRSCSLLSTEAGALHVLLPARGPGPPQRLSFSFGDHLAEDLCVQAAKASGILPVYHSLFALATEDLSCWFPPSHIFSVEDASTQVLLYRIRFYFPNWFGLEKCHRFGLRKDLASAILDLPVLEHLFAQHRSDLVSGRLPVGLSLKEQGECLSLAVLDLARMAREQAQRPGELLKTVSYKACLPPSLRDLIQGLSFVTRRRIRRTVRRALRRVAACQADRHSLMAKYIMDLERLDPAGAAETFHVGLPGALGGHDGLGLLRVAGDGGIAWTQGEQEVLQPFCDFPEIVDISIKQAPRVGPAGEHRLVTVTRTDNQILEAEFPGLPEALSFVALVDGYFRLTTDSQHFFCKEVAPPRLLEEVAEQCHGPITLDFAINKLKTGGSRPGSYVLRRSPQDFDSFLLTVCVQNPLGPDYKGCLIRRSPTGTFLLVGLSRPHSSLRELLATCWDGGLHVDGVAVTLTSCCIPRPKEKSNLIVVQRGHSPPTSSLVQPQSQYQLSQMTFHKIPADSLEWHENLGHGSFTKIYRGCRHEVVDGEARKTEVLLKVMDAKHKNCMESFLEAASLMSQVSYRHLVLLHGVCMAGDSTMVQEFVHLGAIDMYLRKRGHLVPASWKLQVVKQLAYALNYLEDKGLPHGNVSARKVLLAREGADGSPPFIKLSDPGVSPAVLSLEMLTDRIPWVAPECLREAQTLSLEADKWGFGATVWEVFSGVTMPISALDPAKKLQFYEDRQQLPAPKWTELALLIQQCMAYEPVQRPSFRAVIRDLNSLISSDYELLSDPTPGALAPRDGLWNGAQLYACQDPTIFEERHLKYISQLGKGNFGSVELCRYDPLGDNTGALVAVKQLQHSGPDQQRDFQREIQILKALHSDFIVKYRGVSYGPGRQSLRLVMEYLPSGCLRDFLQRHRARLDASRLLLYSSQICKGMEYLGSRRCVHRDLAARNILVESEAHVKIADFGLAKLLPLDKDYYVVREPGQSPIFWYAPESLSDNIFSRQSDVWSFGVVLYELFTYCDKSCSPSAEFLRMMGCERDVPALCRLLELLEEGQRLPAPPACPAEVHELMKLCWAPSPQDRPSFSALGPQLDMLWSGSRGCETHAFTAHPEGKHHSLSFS
Method: Test 1: Test for inhibitory activity to JAK2 and JAK3 tyrosine kinase 1. […] The test material was dissolved in dimethylsulfoxide (DMSO) to be 10 mM, and further diluted with DMSO to be 100-fold concentrations for measurement (1000, 300, 100, 30, 10, 3, 1, 0.3, 0.1, 0.03, 0.01 μM). In addition, solutions diluted with an assay buffer up to 20 times were used as solutions of the test material. As a negative control, a solution of DMSO diluted 20 times with an assay buffer was used. […] 2. Measurement of the Activities of JAK2 and JAK3 Tyrosine Kinases The activity was determined by ELISA. […] The absorbance was measured by means of a micro-plate reader (BIO-RAD; Model 3550) at 450 nm. 3. Analysis of the Results of the Measurement The measured absorbance was subjected to a non-linear regression analysis by means of a SAS system (SAS Institute Inc.), and the concentration (IC50) of the test material which inhibited 50% of the activity of each tyrosine kinase was estimated.

T1 sequence (O60674 whole entry): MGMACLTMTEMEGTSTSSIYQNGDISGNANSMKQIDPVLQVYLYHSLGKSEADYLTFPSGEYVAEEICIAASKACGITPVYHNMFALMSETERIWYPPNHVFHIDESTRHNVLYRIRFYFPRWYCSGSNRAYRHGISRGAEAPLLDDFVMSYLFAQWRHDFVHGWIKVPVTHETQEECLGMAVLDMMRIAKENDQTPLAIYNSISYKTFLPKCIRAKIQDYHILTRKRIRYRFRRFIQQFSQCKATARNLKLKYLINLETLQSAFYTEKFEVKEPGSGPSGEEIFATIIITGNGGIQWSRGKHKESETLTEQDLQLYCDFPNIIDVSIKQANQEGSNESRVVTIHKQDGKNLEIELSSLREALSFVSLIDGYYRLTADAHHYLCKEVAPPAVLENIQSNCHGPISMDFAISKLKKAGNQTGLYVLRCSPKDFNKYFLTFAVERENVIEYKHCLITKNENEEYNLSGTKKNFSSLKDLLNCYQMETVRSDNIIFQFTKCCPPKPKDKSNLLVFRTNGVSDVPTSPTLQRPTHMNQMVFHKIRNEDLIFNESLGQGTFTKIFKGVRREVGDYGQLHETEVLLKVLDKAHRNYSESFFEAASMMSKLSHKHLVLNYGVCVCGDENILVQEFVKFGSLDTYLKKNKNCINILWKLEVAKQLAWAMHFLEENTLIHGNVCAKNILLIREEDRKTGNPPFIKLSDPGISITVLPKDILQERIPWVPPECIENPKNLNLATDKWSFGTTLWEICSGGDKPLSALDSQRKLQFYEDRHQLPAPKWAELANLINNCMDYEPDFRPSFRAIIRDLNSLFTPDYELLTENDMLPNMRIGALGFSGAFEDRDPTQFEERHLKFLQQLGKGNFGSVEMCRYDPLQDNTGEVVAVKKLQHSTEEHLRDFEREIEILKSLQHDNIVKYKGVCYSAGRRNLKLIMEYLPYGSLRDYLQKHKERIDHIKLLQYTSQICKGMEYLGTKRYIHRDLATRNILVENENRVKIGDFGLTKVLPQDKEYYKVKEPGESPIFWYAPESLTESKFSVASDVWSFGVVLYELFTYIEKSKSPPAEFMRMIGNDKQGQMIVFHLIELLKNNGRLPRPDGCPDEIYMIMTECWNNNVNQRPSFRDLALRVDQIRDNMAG

| Structure (SMILES) | pIC50 (JAK2 tyrosine kinase) | pIC50 (JAK3 tyrosine kinase) |
| --- | --- | --- |
| COCCn1cc(-c2cc(Nc3cnccn3)nc(N[C@@H](C)c3ccc(F)cc3)c2)cn1 [Example 217, (S)—N^2-[1-(4-Fluorophenyl)ethyl]-4-[1-(2-methoxyethyl)-1H-pyrazol-4-yl]-N^6-(pyrazin-2-yl)pyridine-2,6-diamine] | 8.82 | 7.44 |
| C[C@H](Nc1cc(N2CC(O)(C3CC3)C2)cc(Nc2cnccn2)n1)c1ccc(F)cc1 [Example 203, (S)-3-Cyclopropyl-1-{2-[1-(4-fluorophenyl)ethylamino]-6-(pyrazin-2-ylamino)pyridin-4-yl}azetidin-3-ol hydrochloride] | 8.35 | 6.92 |
| CC(=O)c1cc(Nc2cnccn2)nc(N[C@@H](C)c2ccc(F)cc2)c1 [Example 182, (S)-1-{2-[1-(4-Fluorophenyl)ethylamino]-6-(pyrazin-2-ylamino)pyridin-4-yl}ethanone hydrochloride] | 8.19 | 6.36 |
| CC(=O)Nc1cc(Nc2cnccn2)nc(N[C@@H](C)c2ccc(F)cc2)c1 [Example 208, (S)—N-{2-[1-(4-Fluorophenyl)ethylamino]-6-(pyrazin-2-ylamino)pyridin-4-yl}acetamide] | 8.85 | 7.00 |
| C[C@H](Nc1nc(Nc2cnccn2)cc(N2CC(F)C2)n1)c1ccc(F)cc1 [Example 44, (S)-6-(3-Fluoroazetidin-1-yl)-N^2-[1-(4-fluorophenyl)ethyl]-N^4-(pyrazin-2-yl)pyrimidine-2,4-diamine] | 8.68 | 6.85 |
| C[C@H](Nc1nc(Nc2cnccn2)cc(-c2ccncc2)n1)c1ccc(F)cc1 [Example 15, (S)—N^2-[1-(4-Fluorophenyl)ethyl]-N^4-(pyrazin-2-yl)-6-(pyridin-4-yl)pyrimidine-2,4-diamine] | 8.89 | 7.14 |
| COC1(C2CC2)CN(c2cc(Nc3cnccn3)nc(N[C@@H](C)c3ccc(F)cc3)c2)C1 [Example 211, (S)-4-(3-Cyclopropyl-3-methoxyazetidin-1-yl)-N^2-[1-(4-fluorophenyl)ethyl]-N^6-(pyrazin-2-yl)pyridine-2,6-diamine hydrochloride] | 8.25 | 7.07 |
| C[C@H](Nc1nc(Nc2cnccn2)cc(N2CCC3(CC2)OCCO3)n1)c1ccc(F)cc1 [Example 111, N^2-[(S)-1-(4-Fluorophenyl)ethyl]-N^4-(pyrazin-2-yl)-6-(1,4-dioxa-8-azaspiro[4.5]decan-8-yl)pyrimidine-2,4-diamine] | 8.80 | 6.96 |
| C[C@H](Nc1nc(Nc2cnccn2)cc(N2CC(C(=O)N(C)C)C2)n1)c1ccc(F)cc1 [Example 176, (S)-1-{2-[1-(4-Fluorophenyl)ethylamino]-6-(pyrazin-2-ylamino)pyrimidin-4-yl}-N,N-dimethylazetidin-3-carboxamide] | 9.02 | – |
| CC(C)C1(O)CN(c2cc(Nc3cnccn3)nc(N[C@@H](C)c3ccc(F)cc3)n2)C1 [Example 201, (S)-1-{2-[1-(4-Fluorophenyl)ethylamino]-6-(pyrazin-2-ylamino)pyrimidin-4-yl}-3-isopropylazetidin-3-ol hydrochloride] | 9.39 | – |
| C[C@H](Nc1cc(C(=O)N2CCN(S(C)(=O)=O)CC2)cc(Nc2cnccn2)n1)c1ccc(F)cc1 [Example 153, (S)-{2-[1-(4-Fluorophenyl)ethylamino]-6-(pyrazin-2-ylamino)pyridin-4-yl}[4-(methanesulfonyl)piperazin-1-yl]methanone] | – | 6.52 |
| C[C@H](Nc1cc(C(=O)NCCO)cc(Nc2cnccn2)n1)c1ccc(F)cc1 [Example 159, (S)-2-[1-(4-Fluorophenyl)ethylamino]-N-(2-hydroxyethyl)-6-(pyrazin-2-ylamino)isonicotinamide] | – | 6.77 |
| C[C@H](Nc1cc(C(=O)NCCN(C)C)cc(Nc2cnccn2)n1)c1ccc(F)cc1 [Example 150, (S)—N-[2-(Dimethylamino)ethyl]-2-[1-(4-fluorophenyl)ethylamino]-6-(pyrazin-2-ylamino)isonicotinamide] | – | 6.82 |
| C[C@H](Nc1cc(C(=O)N2CCOCC2)cc(Nc2cnccn2)n1)c1ccc(F)cc1 [Example 161, (S)-{2-[1-(4-Fluorophenyl)ethylamino]-6-(pyrazin-2-ylamino)pyridin-4-yl}(morpholino)methanone] | – | 6.64 |
| C[C@H](Nc1cc(C(=O)O)cc(Nc2cnccn2)n1)c1ccc(F)cc1 [Example 141, (S)-2-[1-(4-Fluorophenyl)ethylamino]-6-(pyrazin-2-ylamino)isonicotinic acid] | – | 6.36 |
| COCCNC(=O)c1cc(Nc2cnccn2)nc(N[C@@H](C)c2ccc(F)cc2)c1 [Example 165, (S)-2-[1-(4-Fluorophenyl)ethylamino]-N-(2-methoxyethyl)-6-(pyrazin-2-ylamino)isonicotinamide] | – | 6.44 |
| C[C@H](Nc1cc(N2CCC3(CC2)OCCO3)cc(Nc2cnccn2)n1)c1ccc(F)cc1 [Example 133, N^2-[(S)-1-(4-Fluorophenyl)ethyl]-N^6-(pyrazin-2-yl)-4-(1,4-dioxa-8-azaspiro[4.5]decan-8-yl)pyridine-2,6-diamine] | – | 6.64 |
| C[C@H](Nc1cc(OCC2CC2)cc(Nc2cnccn2)n1)c1ccc(F)cc1 [Example 138, (S)-4-(Cyclopropylmethoxy)-N^2-[1-(4-fluorophenyl)ethyl]-N^6-(pyrazin-2-yl)pyridine-2,6-diamine] | – | 6.38 |
| C[C@H](Nc1cc(C(N)=O)cc(Nc2cnccn2)n1)c1ccc(F)cc1 [Example 145, (S)-2-[1-(4-Fluorophenyl)ethylamino]-6-(pyrazin-2-ylamino)isonicotinamide] | – | 7.44 |
| Cc1cn(-c2cc(Nc3cnccn3)nc(N[C@@H](C)c3ccc(F)cc3)c2)cn1 [Example 136, (S)—N^2-[1-(4-Fluorophenyl)ethyl]-4-(4-methyl-1H-imidazol-1-yl)-N^6-(pyrazin-2-yl)pyridine-2,6-diamine dihydrochloride] | – | 6.77 |
